“Also recorded” adds a separate entry of the source. Each block holds one compound with its values, some of them ahead of it.
Tests used:
[1] = biological target: T1, recombinant human sphingosine kinase (Homo sapiens, UniProt Q9NYA1); assay: Sphingosine kinase enzyme assay with recombinant human SK expressed in E. coli; type: biochemical; settings: for kcat: Triton X-100 mixed micelles; for Km (mol %) / Km: substrate kinetics; for Km (mol %): mol % of Triton X-100 (0.25% w/v); for Substrate specificity (phosphorylation by the enzyme): substrates at 100 μM in 0.25% Triton X-100, relative to sphingosine; for Metal ion requirement (sphingosine kinase activity): metal ions or EDTA at 10 mM; for Effect of phospholipid on sphingosine kinase activity: phospholipid at 10 mol% of Triton X-100
T1 construct: The full length SPHK cDNA cloned into pGEX4T2 was transformed into E. coli BL21; GST (N, cleaved yes); made in house; host or cells: E. coli BL21
Protocol: Sphingosine kinase activity was routinely determined using D-erythro-sphingosine and [γ^32P]ATP as substrates, essentially as previously described (Olivera et al., 1998) with some modifications. […] Reactions were terminated and sphingosine-1-phosphate extracted by the addition of 700 μl of chloroform/methanol/HCl (100:200:1. v/v), followed by vigorous mixing, addition of 200 μp of chloroform and 200 μl of 2 M KCl, and phase separation by centrifugation. […] Sunnyvale, Calif.). One unit (U) of activity is defined as 1pmol of S1P formed per minute. The full length SPHK cDNA cloned into pGEX4[…]. coli BL21. Overnight cultures (100 ml) of transformed isolates were grown with shaking (200 rpm) at 30° C. in Superbroth (20 g/L glucose, 35 g/L tryptone, 20 g/L yeast extract, 5 g/L NaCl, pH 7.5) medium containing ampicillin (100 mg/L). The cultures were diluted 1:20 in fresh medium and grown at 30° C. with shaking to an OD600 of 0.6-0.7. Expression of the glutathione-s-transferase (GST)-coupled sphingosine kinase (GST-SK) was then induced by addition of 0.1 mM isopropyl-β-D-thiogalactoside and further incubation of the cultures at 30° C. for 3 h. After this time the bacterial cells were then harvested by centrifugation at 6,000 g for 20 min at 4° C. and resuspended in 20 ml of buffer B containing 250 mM NaCl. the cells were then lysed with lysozyme at a final concentration of 0.3 mg/ml for 15 min at 25° C. followed by sonication, consisting of three cycles of 20 s ultrasonic pulses followed by one minute cooling. The lysate was then clarified by centrifugation at 50,000 g for 45 min at 4° C., followed by filtrating through 0.22 μm filters. To be filtered supernatant was then incubated with 0.2 volumes of 50% (w/v) glutathione-Sepharose 4B (Pharmacia) that was washed and pro-equilibrated with buffer B, for 60 min at 4° C. with constant mixing. After this time the mixture was poured into a glass chromatography column (10 mm diam.) and the beads (with bound GST-SK) washed with 10 column volumes of buffer B at 4° C. The GST-SK was then eluted from the column in 10 ml of buffer B containing 10 mM reduced glutathione. Cleavage of the GST away from sphingosine kinase was then performed by incubation with 20 μg (30 N.I.H. units) thrombin (Pharmacia) for 3 h at 25° C. The released sphingosine kinase was then purified by application of the cleavage mix to a calmodulin-Sepharose column and then a Mono-Q anion exchange column for the purification of the sphingosine kinase from human placenta. […] Similarly, thermal stabilities were determined by assaying the residual activity after pre-incubation of the enzymes at various temperatures (4-80° C.) for 30 min at pH 7.4 (50 mM Tris/HCl containing 10% glycerol, 0.5 M NaCl and 0.05% Triton X-100). Substrate kinetics were analysed using Michaelis-Menten kinetics with a weighted non-linear regression program (Easterby, 1996). […] In both cases the data were analysed by non-linear regression. The effect of metal ions on the activity of the native and recombinant sphingosine kinases were determined by assaying the activity under standard conditions in the presence of various metal ions or EDTA at 10 mM. […] PC, phosphatidylcholine; PS phosphatidylserine; PE, […]; PI, phosphatidylinositol.

[2] = biological target: T2, native sphingosine kinase (human placenta SK1) (Homo sapiens, UniProt Q9NYA1); assay: Sphingosine kinase enzyme assay with native SK purified from human placenta; type: biochemical; settings: for kcat: Triton X-100 mixed micelles; for Km (mol %) / Km: substrate kinetics; for Km (mol %): mol % of Triton X-100 (0.25% w/v); for Substrate specificity (phosphorylation by the enzyme): substrates at 100 μM in 0.25% Triton X-100, relative to sphingosine; for Metal ion requirement (sphingosine kinase activity): metal ions or EDTA at 10 mM; for Effect of phospholipid on sphingosine kinase activity: phospholipid at 10 mol% of Triton X-100
T2 construct: from tissue; host or cells: human placenta
Protocol: Sphingosine kinase activity was routinely determined using D-erythro-sphingosine and [γ^32P]ATP as substrates, essentially as previously described (Olivera et al., 1998) with some modifications. […] Reactions were terminated and sphingosine-1-phosphate extracted by the addition of 700 μl of chloroform/methanol/HCl (100:200:1. v/v), followed by vigorous mixing, addition of 200 μp of chloroform and 200 μl of 2 M KCl, and phase separation by centrifugation. […] Sunnyvale, Calif.). One unit (U) of activity is defined as 1pmol of S1P formed per minute. […] Similarly, thermal stabilities were determined by assaying the residual activity after pre-incubation of the enzymes at various temperatures (4-80° C.) for 30 min at pH 7.4 (50 mM Tris/HCl containing 10% glycerol, 0.5 M NaCl and 0.05% Triton X-100). Substrate kinetics were analysed using Michaelis-Menten kinetics with a weighted non-linear regression program (Easterby, 1996). […] In both cases the data were analysed by non-linear regression. The effect of metal ions on the activity of the native and recombinant sphingosine kinases were determined by assaying the activity under standard conditions in the presence of various metal ions or EDTA at 10 mM. […] PC, phosphatidylcholine; PS phosphatidylserine; PE, […]; PI, phosphatidylinositol.

[3] = inhibitor 2 to 50 μM, mol % of Triton X-100
[4] = listed as N,N,N, -trimethylsphingosinei
[5] = ADP 0.1 to 5 mM, with respect to ATP

T2 sequence (Q9NYA1 whole entry): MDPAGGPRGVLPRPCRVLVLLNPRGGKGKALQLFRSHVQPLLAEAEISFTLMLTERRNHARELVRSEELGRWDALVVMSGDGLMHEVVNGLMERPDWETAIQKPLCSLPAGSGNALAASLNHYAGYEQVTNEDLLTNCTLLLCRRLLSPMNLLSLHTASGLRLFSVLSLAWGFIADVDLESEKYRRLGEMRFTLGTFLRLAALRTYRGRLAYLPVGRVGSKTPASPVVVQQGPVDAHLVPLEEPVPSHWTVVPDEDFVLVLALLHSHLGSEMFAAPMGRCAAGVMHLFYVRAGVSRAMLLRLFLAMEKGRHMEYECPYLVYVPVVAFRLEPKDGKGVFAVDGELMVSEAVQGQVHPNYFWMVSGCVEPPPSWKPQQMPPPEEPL
T1 sequence (Q9NYA1 whole entry): as above

- kcat [1]: 85 S^−1
- Km (mol %) [1]: 0.30 ± 0.07 mol %
- Substrate specificity (phosphorylation by the enzyme) [1]: greatest activity
- kcat [2]: 50 S^−1
- Km (mol %) [2]: 0.35 ± 0.05 mol %
- Substrate specificity (phosphorylation by the enzyme) [2]: greatest activity
Compound: CCCCCCCCCCCCC/C=C/[C@@H](O)[C@@H](N)CO [Sphingosine, D-erythro-Sphingosine]

Compound: [Zn+2] [ZN^2−]
- Metal ion requirement (sphingosine kinase activity) [1]: did not support sphingosine kinase activity
- Metal ion requirement (sphingosine kinase activity) [2]: did not support sphingosine kinase activity

- Metal ion requirement (sphingosine kinase activity) [1]: highest activity
- Metal ion requirement (sphingosine kinase activity) [2]: highest activity
Compound: [Mg+2] [Mg^2+]

- Inhibition of sphingosine kinase (kind of inhibition) [1]: No inhibition
- Inhibition of sphingosine kinase (kind of inhibition) [2]: No inhibition
Compound: CCCCCCCCCCCCC/C=C/[C@@H](O)[C@H](CO)NC(C)=O [N-acetylsphingosine]
- Substrate specificity (phosphorylation by the enzyme) [1]: not phosphorylated; also recorded: No phosphorylation
- Substrate specificity (phosphorylation by the enzyme) [2]: not phosphorylated; also recorded: No phosphorylation

Compound: L-α-phosphatidyldethanolamine
- Effect of phospholipid on sphingosine kinase activity [1]: did not result in any detectable differences
- Effect of phospholipid on sphingosine kinase activity [2]: did not result in any detectable differences

Compound: [Cu+2] [Cu^2−]
- Metal ion requirement (sphingosine kinase activity) [1]: did not support sphingosine kinase activity
- Metal ion requirement (sphingosine kinase activity) [2]: did not support sphingosine kinase activity

- Metal ion requirement (sphingosine kinase activity) [1]: somewhat lower activity
- Metal ion requirement (sphingosine kinase activity) [2]: somewhat lower activity
Compound: [Mn+2] [Mn^2−]

- Inhibition of sphingosine kinase (kind of inhibition) [1]: competitive inhibition
- Ki ([1]; bulk solution concentration): 3.8 ± 1 µM
- Ki (mol %) [1, 3]: 0.10 ± 0.02 mol %
- Substrate specificity (phosphorylation by the enzyme) [1]: not phosphorylated
- Substrate specificity (phosphorylation by the enzyme) [1, 4]: No phosphorylation
- Inhibition of sphingosine kinase (kind of inhibition) [2]: competitive inhibition
- Ki ([2]; bulk solution concentration): 4.6 ± 1 µM
- Ki (mol %) [2, 3]: 0.12 ± 0.03 mol %
- Substrate specificity (phosphorylation by the enzyme) [2]: not phosphorylated
- Substrate specificity (phosphorylation by the enzyme) [2, 4]: No phosphorylation
Compound: CCCCCCCCCCCCC/C=C/[C@@H](O)[C@H](CO)[N+](C)(C)C [N,N,N-trimethylsphingosine]

Compound: CCCC[C@@H](C)[C@@H](OC(=O)C[C@@H](CC(=O)O)C(=O)O)[C@H](C[C@@H](C)C[C@H](O)CCCC[C@@H](O)C[C@H](O)[C@H](C)N)OC(=O)C[C@@H](CC(=O)O)C(=O)O [Fumosin B1]
- Inhibition of sphingosine kinase (kind of inhibition) [1]: No inhibition
- Inhibition of sphingosine kinase (kind of inhibition) [2]: No inhibition

- Inhibition of sphingosine kinase (kind of inhibition) [1]: weak competitive inhibition
- Ki [1, 5]: 900 ± 200 µM
- Inhibition of sphingosine kinase (kind of inhibition) [2]: weak competitive inhibition
- Ki [2, 5]: 1100 ± 300 µM
Compound: Nc1ncnc2c1ncn2[C@@H]1O[C@H](COP(=O)(O)OP(=O)(O)O)[C@@H](O)[C@H]1O [ADP]

- Metal ion requirement (sphingosine kinase activity) [1]: elimated activity
- Metal ion requirement (sphingosine kinase activity) [2]: elimated activity
Compound: O=C(O)CN(CCN(CC(=O)O)CC(=O)O)CC(=O)O [EDTA]

- Substrate specificity (phosphorylation by the enzyme) [1]: Low activity
- Substrate specificity (phosphorylation by the enzyme) [2]: Low activity
Compound: CCCCCCCCCCCCCC[C@@H](O)[C@@H](O)[C@@H](N)CO [phytosphingosine, Phytosphingosine]

Compound: CCCCCCCC(=O)OC[C@H](CO)OC(=O)CCCCCCC [1,2-dioctanoyl-sn-glycerol]
- Substrate specificity (phosphorylation by the enzyme) [1]: not phosphorylated; also recorded: No phosphorylation
- Substrate specificity (phosphorylation by the enzyme) [2]: not phosphorylated; also recorded: No phosphorylation

Compound: [Fe+2] [Fe^2+]
- Metal ion requirement (sphingosine kinase activity) [1]: did not support sphingosine kinase activity
- Metal ion requirement (sphingosine kinase activity) [2]: did not support sphingosine kinase activity

Compound: L-α-phosphatidylinositol
- Substrate specificity (phosphorylation by the enzyme) [1]: not phosphorylated; also recorded: No phosphorylation
- Substrate specificity (phosphorylation by the enzyme) [2]: not phosphorylated; also recorded: No phosphorylation

Compound: CCCCCCCCCCCCCCC[C@@H](O)[C@@H](N)CO [Dihydrosphingosine, D-erythro-dihydrosphingosine]
- kcat [1]: 76 S^−1
- Km ([1]; bulk solution concentration): 19 ± 2 µM
- Km (mol %) [1]: 0.48 ± 0.05 mol %
- Substrate specificity (phosphorylation by the enzyme) [1]: greatest activity
- kcat [2]: 35 S^−1
- Km ([2]; bulk solution concentration): 20 ± 2 µM
- Km (mol %) [2]: 0.50 ± 0.05 mol %
- Substrate specificity (phosphorylation by the enzyme) [2]: greatest activity

Compound: L-α-phosphatidylcholine
- Effect of phospholipid on sphingosine kinase activity [1]: did not result in any detectable differences
- Effect of phospholipid on sphingosine kinase activity [2]: did not result in any detectable differences

- Km ([1]; bulk solution concentration): 86 ± 12 µM
- Km ([2]; bulk solution concentration): 77 ± 11 µM
Compound: Nc1ncnc2c1ncn2[C@@H]1O[C@H](COP(=O)(O)OP(=O)(O)OP(=O)(O)O)[C@@H](O)[C@H]1O [ATP]

- Metal ion requirement (sphingosine kinase activity) [1]: only very low activity
- Metal ion requirement (sphingosine kinase activity) [2]: only very low activity
Compound: [Ca+2] [Ca^2+]

Compound: CCCCCCCC/C=C\CCCCCCCC(=O)OC[C@H](CO)OC(=O)CCCCCCC/C=C\CCCCCCCC [1,2-dioleoyl-sn-glycerol]
- Substrate specificity (phosphorylation by the enzyme) [1]: not phosphorylated; also recorded: No phosphorylation
- Substrate specificity (phosphorylation by the enzyme) [2]: not phosphorylated; also recorded: No phosphorylation

Compound: CCCCCCCCCCCCCCC[C@H](O)[C@@H](N)CO (racemic) [DL-threo-dihydrosphingosine]
- Inhibition of sphingosine kinase (kind of inhibition) [1]: competitive inhibition
- Substrate specificity (phosphorylation by the enzyme) [1]: not phosphorylated; also recorded: No phosphorylation
- Inhibition of sphingosine kinase (kind of inhibition) [2]: competitive inhibition
- Substrate specificity (phosphorylation by the enzyme) [2]: not phosphorylated; also recorded: No phosphorylation

— US6730480B1, “Sphingosine kinase enzyme” (Johnson & Johnson Pharmaceutical Research and Development …, priority 1999, dated 2004)
